Results on one compound are retold here after ChEMBL document CHEMBL3045082, “Novel quinazolinone derivatives: synthesis and antimicrobial activity” (2013).

≈ marks a conversion by molar mass, not a printed value.

For orientation: MIC means the smallest concentration in the dilution series that meets the test's criterion for growth inhibition.

In assay [1] the test system is Fusarium oxysporum. The assay can be described thus: Antimicrobial activity against Fusarium oxysporum assessed as diameter of growth inhibition zone at 1 mg/ml […] by agar diffusion method. It counts as functional. To be noted: read-out: DIZ. For orientation: Agar diffusion results depend on both activity and mobility in agar.
The test system of assay [2] is Staphylococcus aureus. Briefly: Antimicrobial activity against Staphylococcus aureus ATCC 25923 assessed as diameter of growth inhibition zone at 1 mg/ml after 24 hr by agar diffusion method. The format is functional. To be noted: ATCC 25923, 24 h, read-out: DIZ.
In assay [3] the test system is Pseudomonas savastanoi pv. phaseolicola. The assay can be described thus: Antimicrobial activity against Pseudomonas syringae pv. phaseolicola GSPB 2828 assessed as diameter of growth inhibition zone at 1 mg/ml after 24 hr by agar diffusion method. The format is functional. To be noted: GSPB 2828, 24 h, read-out: DIZ.
Assay [4] has as its system Staphylococcus aureus. The assay can be described thus: Antimicrobial activity against Staphylococcus aureus ATCC 25923 assessed as growth inhibition after 24 to 48 hr by two-fold serial dilution method. It counts as functional.
The subject of assay [5] is Pseudomonas savastanoi pv. phaseolicola. Briefly: Antimicrobial activity against Pseudomonas syringae pv. phaseolicola GSPB 2828 assessed as growth inhibition after 24 to 48 hr by two-fold serial dilution method. It counts as functional.
The subject of assay [6] is Staphylococcus aureus. Briefly: Antimicrobial activity against Staphylococcus aureus ATCC 25923 assessed as growth inhibition after 24 to 48 hr by two-fold serial dilution method relative to cephalothin. The format is functional.
For the next assay, the system named is Pseudomonas fluorescens. Briefly: Antimicrobial activity against Pseudomonas fluorescens S 97 assessed as diameter of growth inhibition zone at 1 mg/ml after 24 hr by agar diffusion method. It counts as functional. To be noted: S 97, 24 h, read-out: DIZ.
The subject of assay [7] is Staphylococcus aureus. Briefly: Antimicrobial activity against Staphylococcus aureus ATCC 25923 assessed as growth inhibition after 24 to 48 hr by two-fold serial dilution method relative to chloramphenicol. The format is functional.
Another assay has as its system Streptococcus pyogenes. The assay can be described thus: Antimicrobial activity against Streptococcus pyogenes ATCC 19615 assessed as diameter of growth inhibition zone at 1 mg/ml after 24 hr by agar diffusion method. It counts as functional. To be noted: ATCC 19615, 24 h, read-out: DIZ.
Another assay has as its system Aspergillus fumigatus. Briefly: Antimicrobial activity against Aspergillus fumigatus assessed as diameter of growth inhibition zone at 1 mg/ml by agar diffusion method. To be noted: read-out: DIZ.
In assay [8] the test system is Fusarium oxysporum. Briefly: Antimicrobial activity against Fusarium oxysporum assessed as growth inhibition after 24 to 48 hr by two-fold serial dilution method. The format is functional.

For `Cc1ccc(S(=O)(=O)Oc2ccc(-c3nc4ccccc4c(=O)n3C3=NNC(=O)C3/N=N/c3ccccc3)cc2)cc1` (stereo unspecified), the zone of inhibition at 1000 µg/mL with Fusarium oxysporum [1] worked out at 31 mm; in the assay on Staphylococcus aureus [2], 32 mm; in assay [3], 20 mm; in the assay with Pseudomonas fluorescens, 16 mm; with Streptococcus pyogenes, 14 mm; in the assay with Aspergillus fumigatus it was 16 mm. Further, the results for the MIC (in the assay with Staphylococcus aureus [4]; in assay [5]; in the assay on Fusarium oxysporum [8]) were 12.5 µg/mL (≈ 21.6 µM), 50 µg/mL (≈ 86.4 µM) and 12.5 µg/mL (≈ 21.6 µM), respectively. The “growth inhibition (GI)” value is 50% in the assay with Staphylococcus aureus [6] and 25% in the assay with Staphylococcus aureus [7].
